Source: US20260076982A1, “Prodrugs of Cannbidiol [CBD]-Type Phytocannabinoids and a Process for Preparation Thereof” (priority 2022, published 2026)

Experiments:
[1] = Ex vivo human plasma stability / release kinetic study of CBD prodrugs; type: in vitro ADME; conditions: human blood plasma with citrate buffer; for stability / conversion of prodrug in plasma: over 24 h; for concentration of cannabidiol (B1) released from prodrug after 24 h / prodrug left after 24 h / concentration of cannabidiol (B1) at start of release: 37° C.; for concentration of cannabidiol (B1) released from prodrug after 24 h: HPLC; for concentration of cannabidiol (B1) at start of release: initial value of the release range
Experimental: For the preparation of citrate buffer solution (pH=7.6), 100 ml of HPLC water, 0.25 M sucrose and 40 mM sodium citrate were taken.
To construct a calibration curve, […] different concentration such as 0.78, 1.56, 3.12, 6.25, 12.5, 25, 50 mg/ml of CBD based prodrugs and the parent cannabidiol were prepared. All sample were analyzed by 4.6×250 mm, 5 μm end capped RP-C18 column and the mobile phase containing buffer (0.1% formic acid in water and 0.1% formic acid in acetonitrile) and in some case methanol were used at the flow rate of 1 mL/min at column temperature of 25° C. at 210 nm, 190 nm, 254 nm wavelength range. A volume of 10 μL was injected and a total run time of the assay range was between 15-40 mins. The markers were estimated by HPLC using gradient technique.
For the preparation of plasma sample, fresh 20 ml of human blood was taken to which 2 ml of citrate buffer was added and then vortex it for about 5 minutes. Immediately after this, the mixture was centrifuged at 8000 rpm for 20 minutes, resulting in the separation of two-layer like RBC and plasma (ethical approval number 1EC/GMC/Cat A/2020/267).
To check the stability of prodrugs in plasma, stock solution of prodrug in DMSO (5 mg/2 ml) was prepared and placed at −20° C. The plasma sample of 50 μl was taken in different eppendorf's followed by the addition of 5 μl prodrug solution, vertex for 2 min., incubated at 37° C. at the different time point (Schedule provided in Table 1). After 24 h, all the sample were added with 200 μl MeOH with the help of vertex for about 2 minutes followed by centrifuge for about 10 minutes with 4000 rpm and two layers of sample were separated. The upper layer of methanol sample was taken and immediately the methanol sample was analyzed by 4.6×250 mm, 5 μm end capped RP-C18 column and the mobile phase containing buffer (0.1% formic acid in water and 0.1% formic acid in acetonitrile) and in some case methanol were used at the flow rate of 1 mL/min at column temperature of 25° C. at 210 nm, 190 nm, 254 nm wavelength range. A volume of 10 μL was injected and a total run time of the assay range was 15-40 mins. The markers were estimated by HPLC using gradient technique. The results are depicted in FIG. 1 to FIG. 10.

[2] = published studies; cited from earlier work

| Compound | stability / conversion of prodrug in plasma [1] | prodrug left after 24 h [1] | concentration of prodrug at the initial time point (Pre-treatment) [1] | other results |
| --- | --- | --- | --- | --- |
| C=C(C)[C@@H]1CCC(C)=C[C@H]1c1c(O)cc(CCCCC)cc1OC(=O)CN1CCN(c2ccccc2)CC1 [Compound A8a, O-{2-(4-phenylpiperazin-1-yl)acetyl} cannabidiol] | quite stable | – | – | – |
| C=C(C)[C@@H]1CCC(C)=C[C@H]1c1c(O)cc(CCCCC)cc1O [Compound B1, cannabidiol] | – | – | – | plasma protein binding [2]: > 94% |
| C=C(C)[C@@H]1CCC(C)=C[C@H]1c1c(OC(=O)CN2CCOCC2)cc(CCCCC)cc1OC(=O)CN1CCOCC1 [Compound A1b, O,O-bis-(2-morpholinoacetyl) cannabidiol] | immediately converted into mono substituted CBD derivative | – | – | – |
| C=C(C)[C@@H]1CCC(C)=C[C@H]1c1c(OC(=O)CN2CCN(C3CC3)CC2)cc(CCCCC)cc1OC(=O)CN1CCN(C2CC2)CC1 [Compound A5b, O,O-bis-{2-(4-cyclopropylpiperazin-1-yl)acetyl} cannabidiol] | immediately converted into mono substituted CBD derivative | – | – | time after which release of CBD (B1) started [1]: > 16 h; concentration of cannabidiol (B1) released from prodrug after 24 h [1]: 8.8% |
| C=C(C)[C@@H]1CCC(C)=C[C@H]1c1c(O)cc(CCCCC)cc1OC(=O)CN1CCOCC1 [Compound A1a, O-(2-morpholinoacetyl) cannabidiol] | – | 5.5% | 49.1% | – |
| C=C(C)[C@@H]1CCC(C)=C[C@H]1c1c(O)cc(CCCCC)cc1OC(=O)CN1CCCC1 [Compound A10a, O-{2-(pyrrolidin-1-yl)acetyl} cannabidiol] | – | 1.9% | 51.3% | – |
| C=C(C)[C@@H]1CCC(C)=C[C@H]1c1c(O)cc(CCCCC)cc1OC(=O)CN1CCN(C2CC2)CC1 [Compound A5a, O-{2-(4-cyclopropylpiperazin-1-yl)acetyl} cannabidiol] | – | 11.1% | 51.4% | concentration of cannabidiol (B1) released from prodrug after 24 h [1]: 17.4%; concentration of cannabidiol (B1) at start of release [1]: 0% |
| C=C(C)[C@@H]1CCC(C)=C[C@H]1c1c(O)cc(CCCCC)cc1OC(=O)CN1CCN(C(C)C)CC1 [Compound A6a, O-{2-(4-isopropylpiperazin-1-yl)acetyl} cannabidiol] | – | 11.1% | 51.3% | concentration of cannabidiol (B1) released from prodrug after 24 h [1]: 26.8%; concentration of cannabidiol (B1) at start of release [1]: 0.6% |
| C=C(C)[C@@H]1CCC(C)=C[C@H]1c1c(O)cc(CCCCC)cc1OC(=O)CN1CCC(O)CC1 [Compound A3a, O-{2-(4-hydroxypiperidin-1-yl)acetyl} cannabidiol] | – | below detection limit | 49.2% | – |
| C=C(C)[C@@H]1CCC(C)=C[C@H]1c1c(O)cc(CCCCC)cc1OC(=O)CN1CCC(c2ccccc2)CC1 [Compound A2a, O-{2-(4-phenylpiperidin-1-yl)acetyl} cannabidiol] | quite stable | – | – | – |
| C=C(C)[C@@H]1CCC(C)=C[C@H]1c1c(O)cc(CCCCC)cc1OC(=O)CN1CCN(C)CC1 [Compound A7a, O-{2-(4-methylpiperazin-1-yl)acetyl} cannabidiol] | – | 0.7% | 49.6% | – |
